According to ChEMBL document CHEMBL4229544, “Design, synthesis and antibacterial properties of pyrimido[4,5-b]indol-8-amine inhibitors of DNA gyrase” (Bioorg Med Chem Lett, 2018):
Values after ≈ are worked out from the molar mass of the structure shown.

What was measured:
Staphylococcus aureus = test: Antibacterial activity against Staphylococcus aureus ATCC 29213; format: functional
Enterococcus faecalis [1] = test: Antibacterial activity against Enterococcus faecalis ATCC 29212; format: functional
[2] = system: Mycobacterium tuberculosis; test: Antibacterial activity against Mycobacterium tuberculosis H37Rv; format: functional
[3] = system: Mycolicibacterium smegmatis; test: Antibacterial activity against Mycobacterium smegmatis ATCC 19420; format: functional
Escherichia coli = test: Antibacterial activity against Escherichia coli ATCC 25922; format: functional
Enterococcus faecalis [4] = test: Antibacterial activity against Enterococcus faecalis ATCC 29212 by agar dilution method; format: functional
[5] = system: Staphylococcus epidermidis; test: Antibacterial activity against Staphylococcus epidermidis ATCC 12228 by agar dilution method; format: functional
Haemophilus influenzae [6] = test: Antibacterial activity against Haemophilus influenzae ATCC 49247 by agar dilution method; format: functional
Streptococcus pneumoniae [7] = test: Antibacterial activity against Streptococcus pneumoniae ATCC 49619 by agar dilution method; format: functional
HepG2 = test: Cytotoxicity against human HepG2 cells after 24 hrs by CellTiter-Glo assay; format: cell-based; conditions: HepG2, 24 h
[8] = system: Mycobacterium tuberculosis; test: Antibacterial activity against Mycobacterium tuberculosis H37Rv measured after 5 days by resazurin-dye based microplate assay; format: functional; conditions: 120 h
Pseudomonas aeruginosa [9] = test: Antibacterial activity against Pseudomonas aeruginosa ATCC 27853 by agar dilution method; format: functional
Streptococcus pneumoniae [10] = test: Antibacterial activity against Streptococcus pneumoniae ATCC 49619; format: functional
Haemophilus influenzae [11] = test: Antibacterial activity against Haemophilus influenzae ATCC 49247; format: functional
[12] = system: Staphylococcus epidermidis; test: Antibacterial activity against Staphylococcus epidermidis ATCC 12228; format: functional
Acinetobacter baumannii = test: Antibacterial activity against Acinetobacter baumannii NCTC 13420; format: functional
Pseudomonas aeruginosa [13] = test: Antibacterial activity against Pseudomonas aeruginosa ATCC 27853; format: functional
[14] = molecular target: T1, DNA gyrase subunit A/DNA gyrase subunit B (Mycobacterium tuberculosis (strain ATCC 25618 / H37Rv), UniProt P9WG45+P9WG47); test: Inhibition of Mycobacterium tuberculosis DNA gyrase ATPase activity; format: protein-complex assay
Homo sapiens = species on record: Homo sapiens; test: Inhibition of human topoisomerase-2-mediated decatenation at 100 uM relative to control
[15] = molecular target: T1, DNA gyrase subunit A/DNA gyrase subunit B; test: Inhibition of Mycobacterium tuberculosis DNA gyrase activity; format: protein-complex assay

T1 sequence (P9WG45 whole entry): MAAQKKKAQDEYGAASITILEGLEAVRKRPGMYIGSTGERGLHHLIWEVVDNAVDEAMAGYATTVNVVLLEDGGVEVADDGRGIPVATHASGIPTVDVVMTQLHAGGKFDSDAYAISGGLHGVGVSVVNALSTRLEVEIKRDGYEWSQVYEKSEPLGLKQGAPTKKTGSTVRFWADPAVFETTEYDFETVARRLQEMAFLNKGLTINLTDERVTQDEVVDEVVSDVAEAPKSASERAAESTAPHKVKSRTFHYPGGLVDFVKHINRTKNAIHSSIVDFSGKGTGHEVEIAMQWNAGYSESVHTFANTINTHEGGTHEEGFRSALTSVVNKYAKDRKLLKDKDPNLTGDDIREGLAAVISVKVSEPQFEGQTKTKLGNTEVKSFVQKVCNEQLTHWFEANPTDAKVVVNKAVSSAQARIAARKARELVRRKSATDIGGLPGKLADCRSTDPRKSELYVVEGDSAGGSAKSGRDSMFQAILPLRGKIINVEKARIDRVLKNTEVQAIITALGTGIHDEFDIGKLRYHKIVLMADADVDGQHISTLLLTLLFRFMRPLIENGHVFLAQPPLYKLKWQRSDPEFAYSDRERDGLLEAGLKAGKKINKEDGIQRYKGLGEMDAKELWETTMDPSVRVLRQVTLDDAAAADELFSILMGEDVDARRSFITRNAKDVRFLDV
T1 sequence (P9WG47 whole entry): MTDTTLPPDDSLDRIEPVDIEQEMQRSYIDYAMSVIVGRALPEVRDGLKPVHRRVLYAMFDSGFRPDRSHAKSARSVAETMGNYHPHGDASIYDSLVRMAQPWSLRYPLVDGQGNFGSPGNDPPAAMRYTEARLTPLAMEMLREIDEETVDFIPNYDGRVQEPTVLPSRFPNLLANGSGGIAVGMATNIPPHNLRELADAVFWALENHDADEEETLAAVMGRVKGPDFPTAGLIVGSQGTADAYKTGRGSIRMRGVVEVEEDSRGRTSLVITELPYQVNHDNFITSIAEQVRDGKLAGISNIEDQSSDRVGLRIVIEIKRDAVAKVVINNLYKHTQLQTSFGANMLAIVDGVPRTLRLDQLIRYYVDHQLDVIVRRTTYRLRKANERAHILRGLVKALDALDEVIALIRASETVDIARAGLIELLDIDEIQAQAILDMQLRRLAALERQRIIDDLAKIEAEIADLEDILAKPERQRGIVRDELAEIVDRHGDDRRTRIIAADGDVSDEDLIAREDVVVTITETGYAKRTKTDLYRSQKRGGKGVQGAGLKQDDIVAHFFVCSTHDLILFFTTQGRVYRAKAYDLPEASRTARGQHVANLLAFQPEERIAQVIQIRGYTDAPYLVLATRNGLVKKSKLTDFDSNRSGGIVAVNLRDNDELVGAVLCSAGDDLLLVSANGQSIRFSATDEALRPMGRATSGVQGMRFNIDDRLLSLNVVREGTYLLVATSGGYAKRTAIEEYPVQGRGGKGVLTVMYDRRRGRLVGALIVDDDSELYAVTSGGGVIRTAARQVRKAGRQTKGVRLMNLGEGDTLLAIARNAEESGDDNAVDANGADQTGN

SMILES	MIC (Staphylococcus aureus) [µg/mL]	MIC (Enterococcus faecalis [1]) [µg/mL]	MIC [2] [µg/mL]	MIC [3] [µg/mL]	MIC (Escherichia coli) [µg/mL]	also measured
CNc1cc(F)cc2c1[nH]c1nc(CNC(=O)c3ccc4cc[nH]c4n3)nc(N3CCC(N(C)C)C3)c12 (centres undefined)	1 (≈ 1.99 µM)	0.5 (≈ 0.997 µM)	0.25 (≈ 0.498 µM)	0.25 (≈ 0.498 µM)	4 (≈ 7.97 µM)	–
CNc1cc(F)cc2c1[nH]c1nc(CNC(=O)c3ocnc3C)nc(N3CCC(N(C)C)C3)c12 (centres undefined)	1 (≈ 2.14 µM)	0.03 (≈ 0.0643 µM)	0.06 (≈ 0.129 µM)	0.06 (≈ 0.129 µM)	2 (≈ 4.29 µM)	–
CO[C@@H]1[C@@H](OC(N)=O)[C@@H](O)[C@H](Oc2ccc3c(O)c(NC(=O)c4ccc(O)c(CC=C(C)C)c4)c(=O)oc3c2C)OC1(C)C [NOVOBIOCIN]	0.06 (≈ 0.0979 µM)	–	–	1 (≈ 1.63 µM)	> 64	MIC (Enterococcus faecalis [4]): 4 µg/mL (≈ 6.53 µM); MIC [5]: 0.06 µg/mL (≈ 0.0979 µM); MIC (Haemophilus influenzae [6]): 0.5 µg/mL (≈ 0.816 µM); MIC (Streptococcus pneumoniae [7]): 0.5 µg/mL (≈ 0.816 µM); IC50 (HepG2): > 32 µg/mL; MIC [8]: 4 µg/mL (≈ 6.53 µM); MIC (Pseudomonas aeruginosa [9]): > 64 µg/mL
CNc1cc(F)cc2c1[nH]c1nc(CNC(=O)c3cocn3)nc(N3CCC(NC)C3)c12 (centres undefined)	16 (≈ 36.5 µM)	0.25 (≈ 0.57 µM)	0.12 (≈ 0.274 µM)	0.5 (≈ 1.14 µM)	16 (≈ 36.5 µM)	–
CNc1cc(F)cc2c1[nH]c1nc(CNC(=O)c3cccnn3)nc(N3CCC(N)C3)c12 (centres undefined)	8 (≈ 18.4 µM)	0.12 (≈ 0.276 µM)	–	–	4 (≈ 9.19 µM)	–
CNc1cc(F)cc2c1[nH]c1nc(CNC(=O)c3ocnc3C)nc(N3CCC(CN)C3)c12 (centres undefined)	8 (≈ 17.7 µM)	0.5 (≈ 1.1 µM)	0.015 (≈ 0.0331 µM)	0.03 (≈ 0.0663 µM)	8 (≈ 17.7 µM)	–
CNc1cc(F)cc2c1[nH]c1nc(CNC(=O)c3cccc(C(=O)OC)n3)nc(N3CCC(CN)C3)c12 (centres undefined)	8 (≈ 15.8 µM)	1 (≈ 1.97 µM)	–	0.06 (≈ 0.118 µM)	32 (≈ 63.2 µM)	–
CNc1cc(F)cc2c1[nH]c1nc(CNC(=O)c3ocnc3C)nc(N3CCC(NC)C3)c12 (centres undefined)	4 (≈ 8.84 µM)	0.25 (≈ 0.552 µM)	0.03 (≈ 0.0663 µM)	0.06 (≈ 0.133 µM)	4 (≈ 8.84 µM)	–
CNc1cc(F)cc2c1[nH]c1nc(CNC(=O)c3cnco3)nc(N3CCC(CN)C3)c12 (centres undefined)	4 (≈ 9.12 µM)	0.12 (≈ 0.274 µM)	0.03 (≈ 0.0684 µM)	0.06 (≈ 0.137 µM)	4 (≈ 9.12 µM)	–
CNc1cc(F)cc2c1[nH]c1nc(CN)nc(N3CCC(N)C3)c12 (centres undefined)	8 (≈ 24.3 µM)	8 (≈ 24.3 µM)	–	–	8 (≈ 24.3 µM)	–
CNc1cc(F)cc2c1[nH]c1nc(CNC(=O)c3cnco3)nc(N3CCC(N(C)C)C3)c12 (centres undefined)	0.5 (≈ 1.1 µM)	0.015 (≈ 0.0331 µM)	0.06 (≈ 0.133 µM)	0.06 (≈ 0.133 µM)	0.25 (≈ 0.552 µM)	MIC (Streptococcus pneumoniae [10]): 0.12 µg/mL (≈ 0.265 µM); MIC (Haemophilus influenzae [11]): 4 µg/mL (≈ 8.84 µM); MIC [12]: 0.12 µg/mL (≈ 0.265 µM); MIC (Acinetobacter baumannii): 1 µg/mL (≈ 2.21 µM); MIC (Pseudomonas aeruginosa [13]): > 64 µg/mL; IC50 (HepG2): > 16 µg/mL
CNc1cc(F)cc2c1[nH]c1nc(CNC(=O)c3cnco3)nc(N3CCC(N)C3)c12 (centres undefined)	8 (≈ 18.8 µM)	1 (≈ 2.36 µM)	0.25 (≈ 0.589 µM)	0.25 (≈ 0.589 µM)	4 (≈ 9.42 µM)	MIC (Streptococcus pneumoniae [10]): 1 µg/mL (≈ 2.36 µM); IC50 [14]: 59 nM; MIC (Haemophilus influenzae [11]): 1 µg/mL (≈ 2.36 µM); MIC [12]: 1 µg/mL (≈ 2.36 µM); MIC (Acinetobacter baumannii): 8 µg/mL (≈ 18.8 µM); inhibition (Homo sapiens): 21.2%; MIC (Pseudomonas aeruginosa [13]): 32 µg/mL (≈ 75.4 µM); IC50 [15]: 10 nM; IC50 (HepG2): > 16 µg/mL
CNc1cc(F)cc2c1[nH]c1nc(CNC(=O)c3cccnc3)nc(N3CCC(N)C3)c12 (centres undefined)	32 (≈ 73.7 µM)	0.25 (≈ 0.575 µM)	–	–	8 (≈ 18.4 µM)	–
NNC(=O)c1ccncc1 [ISONIAZID]	–	–	–	4 (≈ 29.2 µM)	–	–
CNc1cc(F)cc2c1[nH]c1nc(CNC(=O)c3cnc(C)o3)nc(N3CCC(CN)C3)c12 (centres undefined)	8 (≈ 17.7 µM)	0.25 (≈ 0.552 µM)	0.015 (≈ 0.0331 µM)	0.12 (≈ 0.265 µM)	4 (≈ 8.84 µM)	–
CNc1cc(F)cc2c1[nH]c1nc(CNC(=O)c3cnc(C)o3)nc(N3CCC(N(C)C)C3)c12 (centres undefined)	1 (≈ 2.14 µM)	0.015 (≈ 0.0322 µM)	–	0.002 (≈ 0.00429 µM)	1 (≈ 2.14 µM)	–
COc1c(N2C[C@@H]3CCCN[C@@H]3C2)c(F)cc2c(=O)c(C(=O)O)cn(C3CC3)c12 [MOXIFLOXACIN]	–	–	–	0.03 (≈ 0.0747 µM)	–	–
CO[C@H]1/C=C/O[C@@]2(C)Oc3c(C)c(O)c4c(O)c(c(/C=N/N5CCN(C)CC5)c(O)c4c3C2=O)NC(=O)/C(C)=C\C=C\[C@H](C)[C@H](O)[C@@H](C)[C@@H](O)[C@@H](C)[C@H](OC(C)=O)[C@@H]1C [RIFAMPIN]	–	–	–	16 (≈ 19.4 µM)	–	–
CNc1cc(F)cc2c1[nH]c1nc(CNC(=O)c3cocn3)nc(N3CCC(N)C3)c12 (centres undefined)	8 (≈ 18.8 µM)	0.06 (≈ 0.141 µM)	–	0.12 (≈ 0.283 µM)	128 (≈ 302 µM)	MIC (Streptococcus pneumoniae [10]): 0.12 µg/mL (≈ 0.283 µM); IC50 [14]: 25 nM; MIC (Haemophilus influenzae [11]): 1 µg/mL (≈ 2.36 µM); MIC [12]: 1 µg/mL (≈ 2.36 µM); MIC (Acinetobacter baumannii): 16 µg/mL (≈ 37.7 µM); inhibition (Homo sapiens): 5.8%; MIC (Pseudomonas aeruginosa [13]): 128 µg/mL (≈ 302 µM); IC50 [15]: 5 nM; IC50 (HepG2): 10.8 µg/mL (≈ 25.5 µM)
CNc1cc(F)cc2c1[nH]c1nc(CNC(=O)c3ccco3)nc(N3CCC(N(C)C)C3)c12 (centres undefined)	0.25 (≈ 0.554 µM)	0.12 (≈ 0.266 µM)	0.03 (≈ 0.0664 µM)	0.06 (≈ 0.133 µM)	0.5 (≈ 1.11 µM)	–
CNc1cc(F)cc2c1[nH]c1nc(CNC(=O)c3cnco3)nc(N3CCC(NC)C3)c12 (centres undefined)	8 (≈ 18.2 µM)	0.5 (≈ 1.14 µM)	0.03 (≈ 0.0684 µM)	0.5 (≈ 1.14 µM)	4 (≈ 9.12 µM)	MIC (Streptococcus pneumoniae [10]): 2 µg/mL (≈ 4.56 µM); MIC (Haemophilus influenzae [11]): 4 µg/mL (≈ 9.12 µM); MIC [12]: 2 µg/mL (≈ 4.56 µM); MIC (Acinetobacter baumannii): > 64 µg/mL; MIC (Pseudomonas aeruginosa [13]): > 64 µg/mL; IC50 (HepG2): > 32 µg/mL
